Earlier results as cited in US7695734B2, “Extended release tablet formulation containing pramipexole or a pharmaceutically acceptable salt thereof” (Boehringer Ingelheim International GmbH, priority 2004, dated 2010).

How the values were obtained:
[1] = light
dopamine D2 receptor = dopamine D2 receptor (Homo sapiens, UniProt P14416)
Sequence of dopamine D2 receptor (P14416 whole entry, species assumed): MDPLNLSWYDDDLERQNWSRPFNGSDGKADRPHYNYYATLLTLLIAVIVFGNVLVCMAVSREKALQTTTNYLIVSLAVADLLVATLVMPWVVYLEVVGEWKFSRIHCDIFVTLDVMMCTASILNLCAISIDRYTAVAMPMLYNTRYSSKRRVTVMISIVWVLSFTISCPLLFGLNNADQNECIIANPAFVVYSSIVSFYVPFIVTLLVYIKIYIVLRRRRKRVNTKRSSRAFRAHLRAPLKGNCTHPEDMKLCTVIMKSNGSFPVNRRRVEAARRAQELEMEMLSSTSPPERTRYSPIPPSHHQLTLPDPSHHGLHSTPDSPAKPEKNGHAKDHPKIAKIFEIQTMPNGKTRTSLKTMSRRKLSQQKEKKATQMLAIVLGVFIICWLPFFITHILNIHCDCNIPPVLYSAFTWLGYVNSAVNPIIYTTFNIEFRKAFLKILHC

stability in solution [1]: light sensitive
agonist activity (dopamine D2 receptor; dopamine D2 receptor): full agonist
Compound: CCCN[C@H]1CCc2nc(N)sc2C1 [Pramipexole, (S)-2-amino-4,5,6,7-tetrahydro-6-(propylamino)benzothiazole]
receptor selectivity (dopamine D2 receptor; dopamine receptors): receptor selectivity for the dopamine D2 family of dopamine receptors
